The target of assay [1] is Bile salt export pump (Homo sapiens, UniProt O95342). In kind it is functional.
In assay [2] the target is Delta-type opioid receptor (Homo sapiens, UniProt P41143).
Assay [3] addresses Kappa-type opioid receptor (Homo sapiens, UniProt P41145).
For assay [4], the target named is Histamine H3 receptor (Homo sapiens, UniProt Q9Y5N1).
The target of assay [5] is Sodium-dependent noradrenaline transporter (Homo sapiens, UniProt P23975).
Assay [6] has as its target T1, 5-hydroxytryptamine receptor 1A (Homo sapiens, UniProt P08908).
T1 sequence (P08908 whole entry): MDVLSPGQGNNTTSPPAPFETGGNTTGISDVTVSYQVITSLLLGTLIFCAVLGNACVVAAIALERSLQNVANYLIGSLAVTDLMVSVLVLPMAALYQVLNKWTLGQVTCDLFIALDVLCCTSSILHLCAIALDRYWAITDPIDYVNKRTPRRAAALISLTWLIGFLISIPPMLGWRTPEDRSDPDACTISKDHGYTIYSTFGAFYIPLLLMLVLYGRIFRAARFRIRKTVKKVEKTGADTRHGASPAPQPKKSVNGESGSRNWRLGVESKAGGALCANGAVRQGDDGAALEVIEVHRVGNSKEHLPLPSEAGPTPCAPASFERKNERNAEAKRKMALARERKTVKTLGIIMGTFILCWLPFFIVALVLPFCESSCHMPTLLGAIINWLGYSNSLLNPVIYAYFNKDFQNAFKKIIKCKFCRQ
In kind it is functional, cell-based.

The target in assay [7] is T2, Neuropeptide Y receptor type 1 (Homo sapiens, UniProt P25929).
T2 sequence (P25929 whole entry): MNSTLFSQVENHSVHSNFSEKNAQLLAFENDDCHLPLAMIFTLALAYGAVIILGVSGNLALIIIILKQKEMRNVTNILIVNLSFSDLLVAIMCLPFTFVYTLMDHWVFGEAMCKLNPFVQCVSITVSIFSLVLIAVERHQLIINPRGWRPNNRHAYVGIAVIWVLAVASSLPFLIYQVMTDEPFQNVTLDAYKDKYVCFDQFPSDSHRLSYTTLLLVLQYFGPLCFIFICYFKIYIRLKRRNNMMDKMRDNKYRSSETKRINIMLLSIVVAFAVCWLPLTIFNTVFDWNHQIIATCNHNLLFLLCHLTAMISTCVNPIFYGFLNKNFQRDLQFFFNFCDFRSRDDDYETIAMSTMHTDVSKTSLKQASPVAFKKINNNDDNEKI

The target of assay [8] is cGMP-inhibited 3',5'-cyclic phosphodiesterase 3A (Homo sapiens, UniProt Q14432). The assay is classed as functional.
Chain of cGMP-inhibited 3',5'-cyclic phosphodiesterase 3A (Q14432 whole entry): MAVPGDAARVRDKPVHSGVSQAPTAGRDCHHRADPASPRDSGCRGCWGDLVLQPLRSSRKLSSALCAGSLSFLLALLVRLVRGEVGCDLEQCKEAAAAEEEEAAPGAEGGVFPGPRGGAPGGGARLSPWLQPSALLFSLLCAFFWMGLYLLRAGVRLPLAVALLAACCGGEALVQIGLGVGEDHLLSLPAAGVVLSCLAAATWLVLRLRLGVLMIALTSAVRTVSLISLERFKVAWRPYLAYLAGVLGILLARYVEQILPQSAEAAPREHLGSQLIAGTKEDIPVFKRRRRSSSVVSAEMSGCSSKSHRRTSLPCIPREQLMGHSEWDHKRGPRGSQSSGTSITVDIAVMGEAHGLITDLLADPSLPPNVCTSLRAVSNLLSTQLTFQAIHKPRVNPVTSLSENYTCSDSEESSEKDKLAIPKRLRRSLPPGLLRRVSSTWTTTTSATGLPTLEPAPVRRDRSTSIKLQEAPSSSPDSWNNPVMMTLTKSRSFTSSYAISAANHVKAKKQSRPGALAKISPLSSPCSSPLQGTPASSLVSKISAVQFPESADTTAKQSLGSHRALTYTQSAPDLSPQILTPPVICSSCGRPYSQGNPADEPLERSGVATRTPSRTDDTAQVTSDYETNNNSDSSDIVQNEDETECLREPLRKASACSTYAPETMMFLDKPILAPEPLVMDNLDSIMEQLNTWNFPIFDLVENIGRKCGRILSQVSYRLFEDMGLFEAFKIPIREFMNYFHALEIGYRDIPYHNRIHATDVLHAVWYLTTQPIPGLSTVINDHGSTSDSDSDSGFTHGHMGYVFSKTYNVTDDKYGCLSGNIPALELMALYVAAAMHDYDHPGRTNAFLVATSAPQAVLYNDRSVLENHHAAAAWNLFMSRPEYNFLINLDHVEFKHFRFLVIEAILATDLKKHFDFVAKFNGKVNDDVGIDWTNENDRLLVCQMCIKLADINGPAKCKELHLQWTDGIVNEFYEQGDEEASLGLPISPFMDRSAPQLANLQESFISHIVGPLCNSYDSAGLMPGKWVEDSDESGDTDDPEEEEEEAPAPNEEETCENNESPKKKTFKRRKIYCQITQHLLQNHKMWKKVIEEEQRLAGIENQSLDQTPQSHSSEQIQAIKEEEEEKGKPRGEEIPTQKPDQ
For assay [9], the target named is T3, Progesterone receptor (Homo sapiens, UniProt P06401).
T3 sequence (P06401 whole entry): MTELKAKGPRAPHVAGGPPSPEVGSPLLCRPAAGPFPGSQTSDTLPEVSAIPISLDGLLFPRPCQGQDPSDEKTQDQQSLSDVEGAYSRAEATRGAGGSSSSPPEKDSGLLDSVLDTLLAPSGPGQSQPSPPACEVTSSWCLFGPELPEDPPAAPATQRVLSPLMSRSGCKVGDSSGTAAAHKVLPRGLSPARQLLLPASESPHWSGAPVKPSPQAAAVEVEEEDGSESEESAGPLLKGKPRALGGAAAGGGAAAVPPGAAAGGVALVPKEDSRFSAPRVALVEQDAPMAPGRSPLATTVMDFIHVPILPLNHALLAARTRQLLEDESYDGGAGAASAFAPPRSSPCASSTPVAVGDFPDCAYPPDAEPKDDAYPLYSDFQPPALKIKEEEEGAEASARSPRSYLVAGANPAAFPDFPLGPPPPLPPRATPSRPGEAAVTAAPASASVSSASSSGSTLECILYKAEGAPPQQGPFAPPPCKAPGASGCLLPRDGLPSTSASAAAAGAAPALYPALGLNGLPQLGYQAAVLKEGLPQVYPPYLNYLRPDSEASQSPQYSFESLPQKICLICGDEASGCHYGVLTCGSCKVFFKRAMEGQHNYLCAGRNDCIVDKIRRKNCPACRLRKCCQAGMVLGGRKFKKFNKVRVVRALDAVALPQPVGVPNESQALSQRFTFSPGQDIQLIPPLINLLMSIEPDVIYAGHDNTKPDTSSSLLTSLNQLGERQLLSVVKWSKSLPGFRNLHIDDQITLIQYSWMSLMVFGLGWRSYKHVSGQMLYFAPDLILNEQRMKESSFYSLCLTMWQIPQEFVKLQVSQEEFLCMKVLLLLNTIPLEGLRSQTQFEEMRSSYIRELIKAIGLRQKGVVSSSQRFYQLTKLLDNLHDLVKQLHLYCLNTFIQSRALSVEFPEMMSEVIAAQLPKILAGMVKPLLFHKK
The assay is classed as functional.

By AC50 is commonly meant the concentration at which the activity in the assay is half-maximal.
Note: assay procedure not described here.

Chain of Delta-type opioid receptor (P41143 whole entry): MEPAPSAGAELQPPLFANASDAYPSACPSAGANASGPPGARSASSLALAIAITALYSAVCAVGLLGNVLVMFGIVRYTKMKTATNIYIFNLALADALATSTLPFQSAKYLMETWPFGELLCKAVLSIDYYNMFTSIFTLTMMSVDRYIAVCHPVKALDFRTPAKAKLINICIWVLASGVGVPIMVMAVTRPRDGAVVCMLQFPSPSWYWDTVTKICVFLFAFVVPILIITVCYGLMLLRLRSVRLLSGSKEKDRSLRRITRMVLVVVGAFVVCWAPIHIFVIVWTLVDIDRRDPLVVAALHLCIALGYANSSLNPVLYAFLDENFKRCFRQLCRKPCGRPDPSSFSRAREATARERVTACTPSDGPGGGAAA
Chain of Histamine H3 receptor (Q9Y5N1 whole entry): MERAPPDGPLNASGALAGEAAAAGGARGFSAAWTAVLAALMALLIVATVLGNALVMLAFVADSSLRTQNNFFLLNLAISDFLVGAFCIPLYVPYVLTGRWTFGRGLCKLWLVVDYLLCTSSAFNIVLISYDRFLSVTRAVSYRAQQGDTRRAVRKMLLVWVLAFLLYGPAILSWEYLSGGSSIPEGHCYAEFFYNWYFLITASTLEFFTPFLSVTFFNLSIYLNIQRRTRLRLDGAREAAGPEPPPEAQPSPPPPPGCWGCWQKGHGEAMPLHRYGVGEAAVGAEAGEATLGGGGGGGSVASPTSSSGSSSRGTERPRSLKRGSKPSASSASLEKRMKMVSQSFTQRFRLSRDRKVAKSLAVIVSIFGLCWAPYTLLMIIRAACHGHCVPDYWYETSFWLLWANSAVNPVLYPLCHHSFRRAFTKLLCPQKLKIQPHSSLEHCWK
Chain of Sodium-dependent noradrenaline transporter (P23975 whole entry): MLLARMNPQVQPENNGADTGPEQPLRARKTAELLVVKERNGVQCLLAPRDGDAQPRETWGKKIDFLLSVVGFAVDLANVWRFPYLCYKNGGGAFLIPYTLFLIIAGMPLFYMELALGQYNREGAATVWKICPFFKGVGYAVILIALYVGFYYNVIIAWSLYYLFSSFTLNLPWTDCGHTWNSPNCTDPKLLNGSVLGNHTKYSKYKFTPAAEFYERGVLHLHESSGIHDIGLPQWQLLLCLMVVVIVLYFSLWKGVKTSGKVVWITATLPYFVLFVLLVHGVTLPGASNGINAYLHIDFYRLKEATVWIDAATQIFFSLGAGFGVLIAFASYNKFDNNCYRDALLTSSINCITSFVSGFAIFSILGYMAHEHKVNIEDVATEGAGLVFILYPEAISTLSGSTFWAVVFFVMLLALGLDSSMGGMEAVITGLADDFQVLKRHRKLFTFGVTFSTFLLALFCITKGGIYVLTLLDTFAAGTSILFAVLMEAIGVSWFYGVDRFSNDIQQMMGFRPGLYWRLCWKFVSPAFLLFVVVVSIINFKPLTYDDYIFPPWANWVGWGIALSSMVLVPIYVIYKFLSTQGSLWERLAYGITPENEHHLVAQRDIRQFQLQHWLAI
Chain of Bile salt export pump (O95342 whole entry): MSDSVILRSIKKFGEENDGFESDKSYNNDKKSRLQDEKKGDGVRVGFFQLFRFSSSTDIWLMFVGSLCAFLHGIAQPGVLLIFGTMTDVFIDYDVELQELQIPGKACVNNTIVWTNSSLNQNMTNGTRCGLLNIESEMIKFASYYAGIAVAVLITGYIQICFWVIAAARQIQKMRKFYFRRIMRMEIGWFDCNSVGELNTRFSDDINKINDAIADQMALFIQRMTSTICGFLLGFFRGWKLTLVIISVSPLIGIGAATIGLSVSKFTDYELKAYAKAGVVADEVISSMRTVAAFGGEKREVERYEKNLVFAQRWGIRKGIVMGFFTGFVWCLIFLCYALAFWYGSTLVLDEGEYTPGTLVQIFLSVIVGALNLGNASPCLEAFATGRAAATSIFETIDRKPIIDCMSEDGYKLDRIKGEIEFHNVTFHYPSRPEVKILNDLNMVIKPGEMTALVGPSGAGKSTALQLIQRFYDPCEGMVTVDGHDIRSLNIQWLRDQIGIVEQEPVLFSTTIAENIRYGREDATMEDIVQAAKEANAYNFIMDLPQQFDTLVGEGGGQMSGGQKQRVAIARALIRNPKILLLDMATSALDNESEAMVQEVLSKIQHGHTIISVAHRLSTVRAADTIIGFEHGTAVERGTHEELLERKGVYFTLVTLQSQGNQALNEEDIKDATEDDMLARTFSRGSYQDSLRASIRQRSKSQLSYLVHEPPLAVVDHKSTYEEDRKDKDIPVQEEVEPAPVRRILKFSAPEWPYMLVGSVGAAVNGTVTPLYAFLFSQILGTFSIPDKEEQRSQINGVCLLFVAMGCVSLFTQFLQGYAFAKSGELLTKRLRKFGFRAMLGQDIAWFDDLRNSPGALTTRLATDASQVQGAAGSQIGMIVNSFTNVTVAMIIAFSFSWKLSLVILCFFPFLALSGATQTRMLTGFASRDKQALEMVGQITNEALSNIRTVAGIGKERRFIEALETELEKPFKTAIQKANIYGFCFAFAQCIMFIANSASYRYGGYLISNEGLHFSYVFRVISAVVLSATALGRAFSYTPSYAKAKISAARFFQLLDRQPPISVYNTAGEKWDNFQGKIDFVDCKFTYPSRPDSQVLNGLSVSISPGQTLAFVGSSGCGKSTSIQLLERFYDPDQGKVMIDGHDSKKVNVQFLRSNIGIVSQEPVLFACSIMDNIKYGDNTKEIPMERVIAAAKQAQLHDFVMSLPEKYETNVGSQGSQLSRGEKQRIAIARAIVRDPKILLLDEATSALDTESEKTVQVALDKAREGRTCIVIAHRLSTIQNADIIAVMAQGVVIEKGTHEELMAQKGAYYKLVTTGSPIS
Chain of Kappa-type opioid receptor (P41145 whole entry): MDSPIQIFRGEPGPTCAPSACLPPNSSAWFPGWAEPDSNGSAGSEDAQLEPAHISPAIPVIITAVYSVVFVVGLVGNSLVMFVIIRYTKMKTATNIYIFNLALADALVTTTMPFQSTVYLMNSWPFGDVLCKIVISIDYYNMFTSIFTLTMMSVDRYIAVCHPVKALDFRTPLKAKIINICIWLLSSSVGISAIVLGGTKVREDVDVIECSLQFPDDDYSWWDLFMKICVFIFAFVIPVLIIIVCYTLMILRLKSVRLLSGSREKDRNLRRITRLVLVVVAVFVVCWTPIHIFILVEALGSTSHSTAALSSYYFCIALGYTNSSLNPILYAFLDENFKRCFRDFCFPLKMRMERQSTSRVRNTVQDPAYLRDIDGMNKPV

Regarding `Cc1nnc(SCC2=C(C(=O)O)N3C(=O)[C@@H](NC(=O)Cn4cnnn4)[C@H]3SC2)s1` [CEFAZOLIN], the AC50 was > 300 µM in assay [1]; > 300 µM in [2]; > 30 µM in [3]; > 300 µM in [4]; > 300 µM in assay [5]; > 300 µM in [6]. The AC50 in assay [7] is > 30 µM; in [8], > 300 µM; in assay [9], > 300 µM.

As for `CCCc1nc2c(C)cc(-c3nc4ccccc4n3C)cc2n1Cc1ccc(-c2ccccc2C(=O)O)cc1`, the AC50 is 5 µM in assay [1]; > 30 µM in assay [3]; > 30 µM in assay [4]; > 30 µM in assay [5]; > 30 µM in [6]; > 30 µM in assay [7]. The concentration at half-maximal activity (AC50) in assay [8] and in [9] was > 30 µM each time.

Take `CC=CC1=C(C(=O)O)N2C(=O)[C@@H](NC(=O)[C@H](N)c3ccc(O)cc3)[C@H]2SC1` [CEFPROZIL]: the half-maximal activity concentration (AC50) in assay [1] was > 300 µM; in assay [2] it was > 30 µM; in [3], > 30 µM; in [4], > 30 µM; in assay [5], > 30 µM; in [6] it was > 30 µM. Besides, the AC50 in assay [7], in assay [8] and in assay [9] was > 30 µM in each case.

As to `Cc1nc(Nc2ncc(C(=O)Nc3c(C)cccc3Cl)s2)cc(N2CCN(CCO)CC2)n1` [DASATINIB], the AC50 in assay [1] was 22 µM; in [2], 9.76 µM; in [3], > 10 µM; in assay [4], 12.7 µM; in [5], 6.3 µM; in [6] it was > 30 µM. In addition, the AC50 in assay [7], in assay [8] and in [9] was > 30 µM throughout.

Regarding `CC1(C)S[C@@H]2[C@H](NC(=O)C(C(=O)O)c3ccccc3)C(=O)N2[C@H]1C(=O)O` (stereo partly specified) [CARBENICILLIN], the AC50 in [1] is 210 µM; in assay [2] it was > 30 µM; in assay [3], > 30 µM; in assay [4], > 30 µM; in [5], > 30 µM; in assay [6] it was > 30 µM. The AC50 in assay [7], in assay [8] and in [9] was > 30 µM each time.

Take `CN(CCOc1ccc(CC2SC(=O)NC2=O)cc1)c1ccccn1` (stereo unspecified) [ROSIGLITAZONE]: the AC50 in assay [1] was 1 µM; in assay [2], > 30 µM; in assay [3] it was > 30 µM; in [4] it was > 30 µM; in [5] it was > 30 µM; in assay [6], > 30 µM. The AC50 in assay [7], in assay [8] and in assay [9] was > 30 µM in each case.

Take `CC(C(=O)O)c1ccc2oc(-c3ccc(Cl)cc3)nc2c1` (stereo unspecified) [BENOXAPROFEN]: the AC50 is 120 µM in assay [1]; > 30 µM in assay [2]; > 30 µM in assay [3]; > 30 µM in [4]; > 30 µM in assay [5]; > 30 µM in assay [6]. The AC50 in [7], in assay [8] and in assay [9] was > 30 µM each time.

Regarding `CC(=O)Nc1ccc(CC(=O)O)cc1` [ACTARIT], the AC50 in [1] was > 300 µM; in [2], > 30 µM; in [3] it was > 30 µM; in assay [4], > 30 µM; in [5], > 30 µM; in [6], > 30 µM. Besides, the AC50 in assay [7], in [8] and in assay [9] was > 30 µM each time.

`CCOc1nc2cccc(C(=O)O)c2n1Cc1ccc(-c2ccccc2-c2nnn[nH]2)cc1`: the concentration at half-maximal activity (AC50) was 100 µM in assay [1]; > 30 µM in [2]; > 10 µM in assay [3]; > 30 µM in [4]; > 30 µM in [5]; > 30 µM in assay [6]. The AC50 was > 10 µM in [7], 13 µM in [8] and > 30 µM in assay [9].

On to `CCCCCCCN(CC)CCCC(O)c1ccc(NS(C)(=O)=O)cc1` (stereo unspecified) [IBUTILIDE], for which the AC50 in assay [1] is > 300 µM; in assay [2], > 30 µM; in assay [3], > 30 µM; in assay [4] it was > 30 µM; in assay [5] it was > 30 µM; in assay [6], > 30 µM. Also, the half-maximal activity concentration (AC50) in assay [7], in assay [8] and in assay [9] was > 30 µM in each case.

With `COc1cc(C(=O)NS(=O)(=O)c2ccccc2C)ccc1Cc1cn(C)c2ccc(NC(=O)OC3CCCC3)cc12` [ZAFIRLUKAST], the AC50 in assay [1] is 2.28 µM; in assay [2] it was > 30 µM; in assay [3] it was 6.32 µM; in assay [4] it was > 10 µM; in assay [5], > 10 µM; in [6] it was > 10 µM. Moreover, the figures for the AC50 in [7], in [8] and in assay [9] were > 10 µM, 14 µM and 11.2 µM, respectively.

For the compound `Cc1onc(-c2c(F)cccc2Cl)c1C(=O)N[C@@H]1C(=O)N2[C@@H]1SC(C)(C)[C@@H]2C(=O)O` [FLOXACILLIN], the half-maximal activity concentration (AC50) in [1] is 50 µM; in assay [2] it was > 30 µM; in assay [4], > 30 µM; in assay [5] it was > 30 µM; in assay [6], > 30 µM; in assay [8], > 30 µM. Further, the AC50 in assay [9] was > 30 µM.

With `CN1Cc2c(N)cccc2C(c2ccccc2)C1` (stereo unspecified) [NOMIFENSINE], the AC50 in assay [1] was > 300 µM; in [2], > 30 µM; in [3] it was > 30 µM; in assay [4], > 30 µM; in assay [6], > 30 µM; in assay [7], > 30 µM. The AC50 in [8] and in [9] was > 30 µM each time.

As for `CCCc1cc(=O)[nH]c(=S)[nH]1` [PROPYLTHIOURACIL], the AC50 was > 300 µM in assay [1]; > 30 µM in assay [2]; > 10 µM in assay [3]; > 10 µM in [4]; > 10 µM in assay [5]; > 10 µM in [6]. Further, the concentration at half-maximal activity (AC50) in [7] is > 10 µM; in [8], > 30 µM; in assay [9] it was > 10 µM.

On to `Cn1cc(C(=O)[C@@H]2CCc3nc[nH]c3C2)c2ccccc21` [RAMOSETRON], for which the AC50 in [1] was > 300 µM; in [2], > 30 µM; in assay [3], 17 µM; in assay [4] it was > 30 µM; in assay [5], > 30 µM; in assay [6], > 30 µM. In addition, the AC50 in assay [7], in assay [8] and in assay [9] was > 30 µM each time.

The values above are taken from ChEMBL document CHEMBL5291721, “A preclinical secondary pharmacology resource illuminates target-adverse drug reaction associations of marketed drugs” (Nat Commun, 2023).
